Results: US20250195553A1, “Use of Genipin-1-B-D-Gentiobioside in Preparation of Drug” (Guizhou Bailing Group Pharmaceutical Co., Ltd., priority 2023, published 2025)
Marks after values point to notes of the source that are not given here.

Legend:
[1] = system: Lipopolysaccharide (LPS)-induced pneumonia model in mice; experiment: Inflammatory factors in lung tissue of LPS-induced pneumonia mice (ELISA); assay type: in vivo, ICR mice; details: i.v.
Experimental: Sixty healthy mice, weighing 18˜20 g, half male and half female, were selected and randomly grouped after stratification by weight; they were divided into a normal control group, a model control group, three Genipin-1-β-D-gentiobioside dose groups (150 mg/kg/d, 75 mg/kg/d, 37.5 mg/kg/d), and a positive control drug Sivelestat Sodium 50 mg/kg/d group, with 10 mice in each group, half male and half female. After grouping, each treatment group was administered intravenously at 20 ml/kg once daily for 2 consecutive days, while the normal control group and model control group were injected with physiological saline. One hour after the second dose, except for the normal control group, the other groups were lightly anesthetized with isoflurane, and a 20 mg/ml LPS physiological saline solution was administered intranasally to the mice at 0.05 ml/mouse to induce the pneumonia model. Six hours after infection, the animals were sacrificed, dissected, and their lungs were removed and weighed to calculate the lung index (lung index=lung weight/body weight×100%).
(1) Sample Collection and Storage: Tissue homogenate samples: The lung tissues of mice were collected and weighed, including those from mice numbered 1, 2, 3, 6, 7, and 8 in each group. The tissues were stored at […] An ultrasonic cell disruptor was used to homogenize the tissues, followed by centrifugation at […] and 1000 r/min for 10 minutes using a low-temperature high-speed centrifuge. The supernatant was then collected, aliquoted, and stored at −80° C. for future use, avoiding repeated freeze-thaw cycles.
(2) The microwell plate, which had been equilibrated to room temperature, was removed from the sealed bag. Different concentrations of standards, experimental samples, or quality control samples were added to the corresponding wells, with 100 μL per well. The reaction wells were sealed with sealing tape and incubated at room temperature for 2 hours. The plate was then washed with wash buffer, repeating the operation four times. After the final wash, the plate was inverted and all residual liquid was patted dry on absorbent paper. Next, 100 μL of enzyme-labeled detection antibody was added to each microwell. The reaction wells were sealed again with sealing tape and incubated at room temperature for another 2 hours. The washing step was repeated as described above. Then, 100 μL of substrate solution was added to each microwell and incubated at room temperature for 30 minutes, protected from light. Within 30 minutes after adding 100 μL of stop solution to each microwell, the absorbance at 450 nm was measured using a microplate reader. The results were then calculated.

[2] = system: Mycoplasma Pneumoniae (MP); experiment: Pathological changes in lung tissue of MP-infected mice (HE staining); assay type: in vivo, BALB/C mice; parameters: Alveolitis Lesion Degree / Bronchial Damage / Histological Damage Degree: scale not given here
Experimental: Fifty BALB/C mice, weighing 14±1 g, were randomly divided into five groups: a normal control group, a model control group, an azithromycin control group, a high-dose Genipin-1-β-D-gentiobioside group (75 mg/ml) with 15-minute nebulization, and a low-dose Genipin-1-β-D-gentiobioside group (37.5 mg/ml) with 15-minute nebulization. Each group consisted of 10 mice, with an equal number of males and females. Except for the normal control group, all mice were lightly anesthetized with isoflurane and infected intranasally with Mycoplasma Pneumoniae (50 μl per mouse) for three consecutive days. On the day of infection, each treatment group received nebulized medication once daily for four consecutive days, while the normal control group and model control group received nebulized saline under the same conditions. On the fifth day, the mice were weighed, sacrificed by cervical dislocation, and their lung tissues were dissected, weighed, and used to calculate the lung index and lung index inhibition rate; measure the levels of inflammatory factors in the lung tissue; measure the serum CRP levels; and conduct pathological examinations of the lung tissue. The results were statistically analyzed using the t-test for intergroup comparisons.
2.4 Pathological Changes in Mouse Lung Tissue (HE Staining Method)

[3] = High-Dose Group (75 mg/ml nebulization 15 min)
[4] = Low-Dose Group (37.5 mg/ml nebulization 15 min)

SMILES: COC(=O)C1=CO[C@@H](O[C@@H]2O[C@H](CO[C@@H]3O[C@H](CO)[C@@H](O)[C@H](O)[C@H]3O)[C@@H](O)[C@H](O)[C@H]2O)[C@@H]2C(CO)=CC[C@H]12 [Genipin-1-β-D-gentiobioside]
- Inflammatory Factor Levels in Lung Tissue IL-6 ([1]; dosage 37.5 (mg/ml)): 16.53 ± 1.91 pg/mL
- Inflammatory Factor Levels in Lung Tissue IL-10 ([1]; dosage 37.5 (mg/ml)): 39.00 ± 8.37 pg/mL
- Inflammatory Factor Levels in Lung Tissue TNF-α ([1]; dosage 37.5 (mg/ml)): 106.13 ± 15.70 pg/mL
- Inflammatory Factor Levels in Lung Tissue IL-6 ([1]; dosage 75 (mg/ml)): 17.72 ± 2.15 pg/mL
- Inflammatory Factor Levels in Lung Tissue IL-10 ([1]; dosage 75 (mg/ml)): 35.75 ± 6.74 pg/mL
- Inflammatory Factor Levels in Lung Tissue TNF-α ([1]; dosage 75 (mg/ml)): 119.71 ± 19.76 pg/mL
- Inflammatory Factor Levels in Lung Tissue IL-6 ([1]; dosage 150 (mg/ml)): 16.63 ± 2.19 pg/mL
- Inflammatory Factor Levels in Lung Tissue IL-10 ([1]; dosage 150 (mg/ml)): 36.00 ± 5.14 pg/mL
- Inflammatory Factor Levels in Lung Tissue TNF-α ([1]; dosage 150 (mg/ml)): 100.25 ± 12.41 pg/mL
- Alveolitis Lesion Degree [2, 3]: 30.40*
- Bronchial Damage [2, 3]: 26.60*
- Histological Damage Degree [2, 3]: 1.50 ± 0.55
- Interstitial Inflammatory Cell Infiltration [2, 3]: 30.60*
- Pathological changes of lung tissue compared with the model group ([2]; High-Dose Group, HE staining): significantly reduced
- Alveolitis Lesion Degree [2, 4]: 39.35
- Bronchial Damage [2, 4]: 52.35
- Histological Damage Degree [2, 4]: 1.90 ± 0.39
- Pathological changes (alveolar wall thickening, inflammatory cell infiltration) compared with the model group ([2]; Low-Dose Group, HE staining): significantly reduced
